Measurements as given in patent US11533912B2, “Use of cinnamate compounds in the control of fungal diseases of crops” (Institute of Plant Protection, Gansu Academy of …, priority 2019, dated 2022).
Like-named read-outs stand apart in the source and are kept apart here.

Columns and labels:
[1] = system: cucumber; test: Crop safety (phytotoxicity) in the cucumber field test; settings: at the test doses (triazole control agents: 1500 fold liquid)
[2] = system: Exserohilum turcicum; test: Ex vivo mycelial growth, growth rate method; type: cell-based; settings: 1 mg/mL
[3] = system: Phytophthora infestans; type: cell-based; settings: Phytophthora infestans (first line), 1 mg/mL
[4] = system: Mycosphaerlla melonis; test: Ex vivo mycelial growth, growth rate method; type: cell-based; settings: 1 mg/mL
[5] = system: Phytophthora infestans; type: cell-based; settings: Phytophthora infestans (second line), 1 mg/mL
[6] = system: Valsa mali; test: Ex vivo mycelial growth, growth rate method; type: cell-based; settings: 1 mg/mL
[7] = system: Phytophthora capsici; test: Ex vivo mycelial growth, growth rate method; type: cell-based; settings: Phytophthora capsici, 1 mg/mL
[8] = system: F. graminearum; test: microbe, parasite or virus in culture; type: cell-based; settings: F. graminearum (second line), 1 mg/mL
[9] = system: C. gossypii; test: Ex vivo mycelial growth, growth rate method; type: cell-based; settings: 1 mg/mL
[10] = system: Rhizoctonia solani; test: Ex vivo mycelial growth, growth rate method; type: cell-based; settings: 1 mg/mL
[11] = system: F. oxysporum f. sp. vasinfectum; test: Ex vivo mycelial growth, growth rate method; type: cell-based; settings: 1 mg/mL
[12] = system: Sclerotinia sclerotiorum; test: Ex vivo mycelial growth, growth rate method; type: cell-based; settings: 1 mg/mL
[13] = system: Botrytis cinerea; test: Ex vivo mycelial growth, growth rate method; type: cell-based; settings: 1 mg/mL
[14] = system: zucchini; settings: in vivo
Source text: The first application was started on August 26th, at the early onset of powdery mildew (the average disease index is 10.07). The instrument for application was Agrolex HD 400 Model hand operating knapsack sprayer, which employed a cone nozzle. Each agent was formulated into the desired concentrations according to the usage amount of the control clear water. Both sides of the leaves were sprayed evenly so that the leaves were wetted by the liquor without loss. […] Thereafter, applications were conducted every 7 days consecutively for 4 times. 10 days after the last application, the number of disease leaves at each grade of powdery mildew was investigated for the whole plant following the grading standard of 9 grades, to calculate the disease index and the control effect.

[15] = system: Pyricularia grisea; test: microbe, parasite or virus in culture; type: cell-based; settings: 1 mg/mL

With `COC(=O)C=Cc1ccc(OC)c(OC)c1` [Control Compound A, methyl 3,4-dimethoxy cinnamate, reference compound] the “phytotoxicity / safety for cucumber” value [1] was “safe for zucchini and cucumber”, the “Average Diameter of the Colony” value [2] was 1.37 cm and the “Inhibition Rate” value ([2]; mycelial growth) was 82.66%. The “Average Diameter of the Colony” value [3] was 2.77 cm, the “Inhibition Rate” value ([3]; mycelial growth) was 64.94% and the “Average Diameter of the Colony” value [4] was 0.67 cm. For the same compound, the “Inhibition Rate” value ([4]; mycelial growth) was 91.52%, the “Average Diameter of the Colony” value [5] was 0.27 cm and the “Inhibition Rate” value ([5]; mycelial growth) was 96.58%. The “Average Diameter of the Colony” value [6] was 0.00 cm, the “Inhibition Rate” value ([6]; mycelial growth) was 100% and the “Average Diameter of the Colony” value [7] was 1.97 cm. For the same compound, the “Inhibition Rate” value ([7]; mycelial growth) was 75.06%, the “Average Diameter of the Colony” value [8] was 4.90 cm and the “Inhibition Rate” value ([8]; mycelial growth) was 37.98%. The “Average Diameter of the Colony” value [9] was 3.83 cm, the “Inhibition Rate” value ([9]; mycelial growth) was 51.52% and the “Average Diameter of the Colony” value [10] was 0.67 cm. The “Inhibition Rate” value ([10]; mycelial growth) was 91.52%, the “Average Diameter of the Colony” value [11] was 2.43 cm and the “Inhibition Rate” value ([11]; mycelial growth) was 69.24%. The “Average Diameter of the Colony” value [12] was 0.00 cm, the “Inhibition Rate” value ([12]; mycelial growth) was 100% and the “Average Diameter of the Colony” value [13] was 2.27 cm. The “Inhibition Rate” value ([13]; mycelial growth) was 71.27%, the safety for zucchini [14] was “safe for zucchini and cucumber” and the “Average Diameter of the Colony” value [15] was 3.83 cm. The “Inhibition Rate” value ([15]; mycelial growth) was 51.52%.
